According to patent US11168095B2, “ASK1 inhibiting agents” (BIOGEN MA INC., priority 2017, dated 2021):
pIC50: −log10 of the molar value. Where two headings read alike, the source gives them in different places.

Assays:
ASK1/MAP3K5 = ASK1/MAP3K5 (Homo sapiens (Human), UniProt Q99683); assay: ASK1/MAP3K5 assay by Reaction Biology Corp.; format: biochemical; conditions: 20 μM myelin basic protein (MBP), 10 μM ATP
Description: ASK1/MAP3K5 was used as the protein kinase and 20 μM of myelin basic protein (MBP) and 10 μM ATP were used as the substrate.

GST-hASK1 = GST-hASK1 (Homo sapiens (Human), UniProt Q99683); assay: ASK1 TR-FRET assay; format: biochemical; conditions: 5 nM GST-hASK1, 100 μM ATP, 2 μM STK Substrate 3
Chain of GST-hASK1 (Q99683 649-946): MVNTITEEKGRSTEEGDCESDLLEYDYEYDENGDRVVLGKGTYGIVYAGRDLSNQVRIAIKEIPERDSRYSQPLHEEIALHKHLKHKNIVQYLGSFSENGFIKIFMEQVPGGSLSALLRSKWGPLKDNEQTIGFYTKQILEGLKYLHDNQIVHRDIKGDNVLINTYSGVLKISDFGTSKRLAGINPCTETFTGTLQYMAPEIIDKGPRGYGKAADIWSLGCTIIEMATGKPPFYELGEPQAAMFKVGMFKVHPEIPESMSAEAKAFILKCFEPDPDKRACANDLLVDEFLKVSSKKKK
Description: The protein kinase activity of 5 nM GST-hASK1(Life Technologies PV4011) was assayed with 100 μM ATP and 2 μM of HTRF biotinylated STK Substrate 3 (CisBio Kit 62ST3PEJ), at ambient temperature in 25 mM Hepes, pH 7.5, 50 mM NaCl, 10 mM MgCl2, 0.02% Brij-35, 1 mM DTT, and 1% DMSO.
After a 10 minute pre-incubation, ASK1 protein kinase activity was initiated by addition of 10 μL of 300 μM ATP.

[1] = biological target: ASK1 T838 auto phosphorylation in HEK-293T cells (Homo sapiens (Human), UniProt Q99683); assay: ASK1 (AUTO PHOS T838) assay, MSD format; format: cell-based
Chain of ASK1 T838 auto phosphorylation in HEK-293T cells (Q99683 whole entry): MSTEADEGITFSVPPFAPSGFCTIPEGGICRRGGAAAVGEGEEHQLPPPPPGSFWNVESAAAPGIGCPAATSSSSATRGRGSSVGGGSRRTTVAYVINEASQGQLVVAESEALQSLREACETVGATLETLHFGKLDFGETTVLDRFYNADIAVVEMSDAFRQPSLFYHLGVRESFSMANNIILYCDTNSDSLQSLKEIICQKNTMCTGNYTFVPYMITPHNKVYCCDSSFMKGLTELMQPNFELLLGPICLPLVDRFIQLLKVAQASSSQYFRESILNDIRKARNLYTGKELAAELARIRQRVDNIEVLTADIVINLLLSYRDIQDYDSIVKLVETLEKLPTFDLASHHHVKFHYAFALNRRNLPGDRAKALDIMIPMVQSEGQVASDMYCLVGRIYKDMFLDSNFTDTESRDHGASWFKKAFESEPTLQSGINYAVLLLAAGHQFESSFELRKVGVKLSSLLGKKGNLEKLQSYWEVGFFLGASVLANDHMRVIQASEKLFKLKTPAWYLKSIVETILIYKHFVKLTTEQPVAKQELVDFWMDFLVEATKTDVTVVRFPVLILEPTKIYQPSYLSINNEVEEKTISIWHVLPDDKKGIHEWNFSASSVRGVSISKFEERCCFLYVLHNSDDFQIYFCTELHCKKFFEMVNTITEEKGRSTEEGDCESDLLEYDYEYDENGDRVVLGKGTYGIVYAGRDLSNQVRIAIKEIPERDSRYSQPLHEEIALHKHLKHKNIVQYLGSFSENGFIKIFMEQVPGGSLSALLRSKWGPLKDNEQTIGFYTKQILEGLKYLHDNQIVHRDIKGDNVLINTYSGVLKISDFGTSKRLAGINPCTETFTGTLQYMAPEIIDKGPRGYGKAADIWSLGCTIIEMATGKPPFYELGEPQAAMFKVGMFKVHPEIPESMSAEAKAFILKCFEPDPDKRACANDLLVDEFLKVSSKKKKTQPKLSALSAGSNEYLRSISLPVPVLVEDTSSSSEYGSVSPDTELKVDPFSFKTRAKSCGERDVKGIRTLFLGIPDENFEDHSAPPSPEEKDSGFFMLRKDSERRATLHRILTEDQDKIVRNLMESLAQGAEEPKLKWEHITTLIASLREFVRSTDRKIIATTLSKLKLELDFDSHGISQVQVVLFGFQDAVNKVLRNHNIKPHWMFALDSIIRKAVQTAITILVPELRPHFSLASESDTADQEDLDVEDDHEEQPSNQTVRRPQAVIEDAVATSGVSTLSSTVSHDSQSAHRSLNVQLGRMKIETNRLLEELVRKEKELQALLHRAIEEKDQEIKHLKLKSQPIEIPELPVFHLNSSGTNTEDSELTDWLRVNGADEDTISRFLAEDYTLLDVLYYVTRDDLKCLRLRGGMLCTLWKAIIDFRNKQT

[2] = HEK 293T cells transfected with ASK1-V5 full length plasmid, compounds 1 hr at 37° C., read-out: IC50

Chain of ASK1/MAP3K5 (Q99683 whole entry): as above

| pIC50 (ASK1/MAP3K5) | pIC50 (GST-hASK1) | pIC50 [1, 2] | pIC50 (GST-hASK1; class given in words) | Structure (SMILES) | pIC50 [1] | pIC50 ([1]; read-out: IC50) |
| --- | --- | --- | --- | --- | --- | --- |
| > 7.00 | > 7.00 | > 6.00 |  | O=C1Nc2cccc(n2)-c2nncn2CCCCOc2ccc(C3CCOC3)cc21 (racemic) [Example 15, rac-5^5-(Tetrahydrofuran-3-yl)-1^4H-6-oxa-3-aza-2(2,6)-pyridina-1(3,4)-triazola-5(1,2)-benzenacyclodecaphan-4-one] |  |  |
| > 7.00 | > 7.00 | > 6.00 |  | O=C1Nc2cccc(n2)-c2nncn2CCCCOc2ccc(N3CC(F)(F)C3)cc21 [Example 9, 5^5-(3,3-Difluoroazetidin-1-yl)-1^4H-6-oxa-3-aza-2(2,6)-pyridina-1(3,4)-triazola-5(1,2)-benzenacyclodecaphan-4-one] |  |  |
| > 7.00 | > 7.00 | > 6.00 |  | O=C1Nc2cccc(n2)-c2nncn2CCCCOc2ccc(N3CCC(F)(F)C3)cc21 [Example 10, 5^5-(3,3-Difluoropyrrolidin-1-yl)-1^4H-6-oxa-3-aza-2(2,6)-pyridina-1(3,4)-triazola-5(1,2)-benzenacyclodecaphan-4-one] |  |  |
| > 7.00 | > 7.00 | > 6.00 |  | O=C1Nc2cccc(n2)-c2nncn2CCCCOc2ccc(N3CCCC(F)(F)C3)cc21 [Example 11, 5^5-(3,3-Difluoropiperidin-1-yl)-1^4H-6-oxa-3-aza-2(2,6)-pyridina-1(3,4)-triazola-5(1,2)-benzenacyclodecaphan-4-one] |  |  |
| > 7.00 | > 7.00 | > 6.00 |  | O=C1Nc2cccc(n2)-c2nncn2CCCCOc2ccc(N3CCC(F)(F)CC3)cc21 [Example 12, 5^5-(4,4-Difluoropiperidin-1-yl)-1^4H-6-oxa-3-aza-2(2,6)-pyridina-1(3,4)-triazola-5(1,2)-benzenacyclodecaphan-4-one] |  |  |
| > 7.00 | > 7.00 | > 6.00 |  | O=C1Nc2cccc(n2)-c2nncn2CCCCOc2ccc(C3CCOCC3)cc21 [Example 17, 5^5-(Tetrahydro-2H-pyran-4-yl)-1^4H-6-oxa-3-aza-2(2,6)-pyridina-1(3,4)-triazola-5(1,2)-benzenacyclodecaphan-4-one] |  |  |
|  |  | < 5.00 | ≤ 5.00 | CN1C(=O)c2cc(Br)ccc2OCCCCn2cnnc2-c2cccc1n2 [Example 152, 5^5-Bromo-3-methyl-1^4H-6-oxa-3-aza-2(2,6)-pyridina-1(3,4)-triazola-5(1,2)-benzenacyclodecaphan-4-one] |  |  |
|  | > 7.00 | > 6.00 |  | O=C1Nc2cccc(n2)-c2nncn2CCCCOc2cc(C(F)(F)F)ccc21 [Example 153, 5^4-(Trifluoromethyl)-1^4H-6-oxa-3-aza-2(2,6)-pyridina-1(3,4)-triazola-5(1,2)-benzenacyclodecaphan-4-one] |  |  |
|  | 6.00 to 7.00 | 5.00 to 6.00 |  | O=C1Nc2cccc(n2)-c2nncn2C/C=C/COc2cc(C(F)(F)F)ccc21 [Example 154, (E)-5^4-(Trifluoromethyl)-1^4H-6-oxa-3-aza-2(2,6)-pyridina-1(3,4)-triazola-5(1,2)-benzenacyclodecaphan-8-en-4-one] |  |  |
|  | 6.00 to 7.00 | 5.00 to 6.00 |  | O=C1Nc2cccc(n2)-c2nncn2C/C=C\COc2cc(C(F)(F)F)ccc21 [Example 155, (Z)-5^4-(Trifluoromethyl)-1^4H-6-oxa-3-aza-2(2,6)-pyridina-1(3,4)-triazola-5(1,2)-benzenacyclodecaphan-8-en-4-one] |  |  |
|  | 6.00 to 7.00 | 5.00 to 6.00 |  | O=C1Nc2cccc(n2)-c2nncn2C/C=C/COc2cc(F)ccc21 [Example 157, (E)-5^4-Fluoro-1^4H-6-oxa-3-aza-2(2,6)-pyridina-1(3,4)-triazola-5(1,2)-benzenacyclodecaphan-8-en-4-one] |  |  |
|  | 6.00 to 7.00 | 5.00 to 6.00 |  | O=C1Nc2cccc(n2)-c2nncn2C/C=C/COc2ccc(F)cc21 [Example 158, (E)-5^5-Fluoro-1^4H-6-oxa-3-aza-2(2,6)-pyridina-1(3,4)-triazola-5(1,2)-benzenacyclodecaphan-8-en-4-one] |  |  |
|  | > 7.00 | > 6.00 |  | O=C1Nc2cccc(n2)-c2nncn2C/C=C\COc2ccc(F)cc21 [Example 159, (Z)-5^5-Fluoro-1^4H-6-oxa-3-aza-2(2,6)-pyridina-1(3,4)-triazola-5(1,2)-benzenacyclodecaphan-8-en-4-one] |  |  |
|  | 6.00 to 7.00 | < 5.00 |  | O=C1Nc2cccc(n2)-c2nncn2C/C=C/COc2c(Br)cccc21 [Example 163, (E)-5^3-Bromo-1^4H-6-oxa-3-aza-2(2,6)-pyridina-1(3,4)-triazola-5(1,2)-benzenacyclodecaphan-8-en-4-one] |  |  |
|  |  | < 5.00 | ≤ 5.00 | O=C1Nc2cccc(n2)-c2nncn2C/C=C\COc2c(Br)cccc21 [Example 164, (Z)-5^3-Bromo-1^4H-6-oxa-3-aza-2(2,6)-pyridina-1(3,4)-triazola-5(1,2)-benzenacyclodecaphan-8-en-4-one] |  |  |
|  | 5.00 to 6.00 | < 5.00 |  | O=C1Nc2cccc(n2)-c2nncn2C/C=C/COc2c1cccc2C(F)(F)F [Example 166, (E)-5^3-(Trifluoromethyl)-1^4H-6-oxa-3-aza-2(2,6)-pyridina-1(3,4)-triazola-5(1,2)-benzenacyclodecaphan-8-en-4-one] |  |  |
|  |  | < 5.00 | ≤ 5.00 | O=C1Nc2cccc(n2)-c2nncn2C/C=C\COc2c1cccc2C(F)(F)F [Example 167, (Z)-5^3-(Trifluoromethyl)-1^4H-6-oxa-3-aza-2(2,6)-pyridina-1(3,4)-triazola-5(1,2)-benzenacyclodecaphan-8-en-4-one] |  |  |

| Structure (SMILES) | pIC50 (ASK1/MAP3K5) | pIC50 (GST-hASK1) | pIC50 [1, 2] | pIC50 (GST-hASK1; class given in words) | pIC50 [1] | pIC50 ([1]; read-out: IC50) |
| --- | --- | --- | --- | --- | --- | --- |
| O=C1Nc2cccc(n2)-c2nncn2CCCCOc2ccc(N3C4CCC3COC4)cc21 [Example 5, 5^5-(3-Oxa-8-azabicyclo[3.2.1]octan-8-yl)-1^4H-6-oxa-3-aza-2(2,6)-pyridina-1(3,4)-triazola-5(1,2)-benzenacyclodecaphan-4-one] | > 7.00 | > 7.00 | > 6.00 |  |  |  |
| O=C1Nc2cccc(n2)-c2nncn2CCCCOc2ccc(N3CC4CC(C3)O4)cc21 [Example 6, 5^5-(6-Oxa-3-azabicyclo[3.1.1]heptan-3-yl)-1^4H-6-oxa-3-aza-2(2,6)-pyridina-1(3,4)-triazola-5(1,2)-benzenacyclodecaphan-4-one] | > 7.00 | > 7.00 | > 6.00 |  |  |  |
| O=C1Nc2cccc(n2)-c2nncn2CCCCOc2ccc(N3C4COCC3C4)cc21 [Example 8, 5^5-(3-Oxa-6-azabicyclo[3.1.1]heptan-6-yl)-1^4H-6-oxa-3-aza-2(2,6)-pyridina-1(3,4)-triazola-5(1,2)-benzenacyclodecaphan-4-one] | > 7.00 | > 7.00 | 5.00 to 6.00 |  |  |  |
| O=C1Nc2cccc(n2)-c2nncn2C/C=C\COc2ccc(Br)cc21 [Example 161, (Z)-5^5-Bromo-1^4H-6-oxa-3-aza-2(2,6)-pyridina-1(3,4)-triazola-5(1,2)-benzenacyclodecaphan-8-en-4-one] |  | > 7.00 |  |  | 5.00 to 6.00 |  |
| O=C1Nc2cccc(n2)-c2nncn2C/C=C/COc2ccc(Br)cc21 [Example 162, (E)-5^5-Bromo-1^4H-6-oxa-3-aza-2(2,6)-pyridina-1(3,4)-triazola-5(1,2)-benzenacyclodecaphan-8-en-4-one] |  | > 7.00 | 5.00 to 6.00 |  |  |  |
| O=C1Nc2cccc(n2)-c2nncn2C/C=C\COc2ccc(N3CCOCC3)cc21 [Example 169, (Z)-5^5-Morpholino-1^4H-6-oxa-3-aza-2(2,6)-pyridina-1(3,4)-triazola-5(1,2)-benzenacyclodecaphan-8-en-4-one] |  | > 7.00 |  |  |  | > 6.00 |
